Data: patent publication US20180185408A1, “ANTIFUNGAL NYLON-3 POLYMERS AND COMBINATION THERAPY USING THEM TO TREAT FUNGAL INFECTIONS” (priority 2016, published 2018)
Read-outs that look alike come from different tables or passages of the source.

Tests used:
Candida albicans = experiment: MIC by broth microdilution (CLSI M27-A3); type: cell-based
Candida lusitaniae = experiment: MIC by broth microdilution (CLSI M27-A3); type: cell-based

C[C@@H]1[C@H](O)[C@@H](C)/C=C/C=C/C=C/C=C/C=C/C=C/C=C/[C@H](O[C@@H]2O[C@H](C)[C@@H](O)[C@H](N)[C@@H]2O)C[C@@H]2O[C@](O)(C[C@@H](O)C[C@@H](O)[C@H](O)CC[C@@H](O)C[C@@H](O)CC(=O)O[C@H]1C)C[C@H](O)[C@H]2C(=O)O [AMB, amphotericin B]
MIC (Candida albicans; C. albicans (E4), Amp B Resistant, RPMI 1640 (0.2% Glucose), […]10^5 cells/mL, 30° C.): 3.13 µg/mL | MIC (Candida albicans; C. albicans (E4), […]10^3 cells/mL, 35°C, read-out: MIC): 3.4 µM | MIC (Candida albicans; C. albicans (Gu5), Fluconazole Resistant, RPMI 1640 (0.2% Glucose), […]10^5 cells/mL, 30° C.): 0.78 µg/mL | MIC (Candida albicans; C. albicans (Gu5), […]10^3 cells/mL, 35°C, read-out: MIC): 0.9 µM | MIC (Candida albicans; C. albicans (K1), Fluconazole Resistant, RPMI 1640 (0.2% Glucose), […]10^5 cells/mL, 30° C.): 0.78 µg/mL | MIC (Candida albicans; C. albicans (K1), […]10^3 cells/mL, 35°C, read-out: MIC): 1.7 µM | MIC (Candida albicans; C. albicans (SC5314), […]10^3 cells/mL, 35°C, read-out: MIC): 0.9 µM | MIC (Candida albicans; C. albicans (SCG5314), Sensitive, RPMI 1640 (0.2% Glucose), […]10^5 cells/mL, 30° C.): 0.78 µg/mL | MIC (Candida albicans; E4, […]10^3 cells/mL, 35°C, OD600 24 h, avg.): 6.3 µg/mL | MIC (Candida albicans; E4, […]10^3 cells/mL, 35°C, OD600 24 h, avg., read-out: MIC): 6.8 µM | MIC (Candida albicans; E4, […]10^3 cells/mL, 35°C, OD600 24 h, trial 1): 6.3 µg/mL | MIC (Candida albicans; E4, […]10^3 cells/mL, 35°C, OD600 24 h, trial 1, read-out: MIC): 6.8 µM | MIC (Candida albicans; E4, […]10^3 cells/mL, 35°C, OD600 24 h, trial 2): 6.3 µg/mL | MIC (Candida albicans; E4, […]10^3 cells/mL, 35°C, OD600 24 h, trial 2, read-out: MIC): 6.8 µM | MIC (Candida albicans; E4, […]10^5 cells/mL, 30°C, OD600 48 h, avg.): 3.1 µg/mL | MIC (Candida albicans; E4, […]10^5 cells/mL, 30°C, OD600 48 h, avg., read-out: MIC): 3.4 µM | MIC (Candida albicans; E4, […]10^5 cells/mL, 30°C, OD600 48 h, trial 1): 3.1 µg/mL | MIC (Candida albicans; E4, […]10^5 cells/mL, 30°C, OD600 48 h, trial 1, read-out: MIC): 3.4 µM | MIC (Candida albicans; E4, […]10^5 cells/mL, 30°C, OD600 48 h, trial 2): 3.1 µg/mL | MIC (Candida albicans; E4, […]10^5 cells/mL, 30°C, OD600 48 h, trial 2, read-out: MIC): 3.4 µM | MIC (Candida albicans; Gu5, […]10^3 cells/mL, 35°C, OD600 24 h, avg.): 2.0 µg/mL | MIC (Candida albicans; Gu5, […]10^3 cells/mL, 35°C, OD600 24 h, avg., read-out: MIC): 2.2 µM | MIC (Candida albicans; Gu5, […]10^3 cells/mL, 35°C, OD600 24 h, trial 1): <1.6 µg/mL | MIC (Candida albicans; Gu5, […]10^3 cells/mL, 35°C, OD600 24 h, trial 1, read-out: MIC): <1.7 µM | MIC (Candida albicans; Gu5, […]10^3 cells/mL, 35°C, OD600 24 h, trial 2): 3.1 µg/mL | MIC (Candida albicans; Gu5, […]10^3 cells/mL, 35°C, OD600 24 h, trial 2, read-out: MIC): 3.4 µM | MIC (Candida albicans; Gu5, […]10^5 cells/mL, 30°C, OD600 48 h, avg.): 0.8 µg/mL | MIC (Candida albicans; Gu5, […]10^5 cells/mL, 30°C, OD600 48 h, avg., read-out: MIC): 0.9 µM | MIC (Candida albicans; Gu5, […]10^5 cells/mL, 30°C, OD600 48 h, trial 1): 0.8 µg/mL | MIC (Candida albicans; Gu5, […]10^5 cells/mL, 30°C, OD600 48 h, trial 1, read-out: MIC): 0.9 µM | MIC (Candida albicans; Gu5, […]10^5 cells/mL, 30°C, OD600 48 h, trial 2): 0.8 µg/mL | MIC (Candida albicans; Gu5, […]10^5 cells/mL, 30°C, OD600 48 h, trial 2, read-out: MIC): 0.9 µM | MIC (Candida albicans; K1, […]10^3 cells/mL, 35°C, OD600 24 h, avg.): <1.6 µg/mL | MIC (Candida albicans; K1, […]10^3 cells/mL, 35°C, OD600 24 h, avg., read-out: MIC): <1.7 µM | MIC (Candida albicans; K1, […]10^3 cells/mL, 35°C, OD600 24 h, trial 1): <1.6 µg/mL | MIC (Candida albicans; K1, […]10^3 cells/mL, 35°C, OD600 24 h, trial 1, read-out: MIC): <1.7 µM | MIC (Candida albicans; K1, […]10^3 cells/mL, 35°C, OD600 24 h, trial 2): <1.6 µg/mL | MIC (Candida albicans; K1, […]10^3 cells/mL, 35°C, OD600 24 h, trial 2, read-out: MIC): <1.7 µM | MIC (Candida albicans; K1, […]10^5 cells/mL, 30°C, OD600 48 h, avg.): 1.6 µg/mL | MIC (Candida albicans; K1, […]10^5 cells/mL, 30°C, OD600 48 h, avg., read-out: MIC): 1.7 µM | MIC (Candida albicans; K1, […]10^5 cells/mL, 30°C, OD600 48 h, trial 1): 1.6 µg/mL | MIC (Candida albicans; K1, […]10^5 cells/mL, 30°C, OD600 48 h, trial 1, read-out: MIC): 1.7 µM | MIC (Candida albicans; K1, […]10^5 cells/mL, 30°C, OD600 48 h, trial 2): 1.6 µg/mL | MIC (Candida albicans; K1, […]10^5 cells/mL, 30°C, OD600 48 h, trial 2, read-out: MIC): 1.7 µM | MIC (Candida albicans; SC5314, […]10^3 cells/mL, 35°C, OD600 24 h, avg.): 4.7 µg/mL | MIC (Candida albicans; SC5314, […]10^3 cells/mL, 35°C, OD600 24 h, avg., read-out: MIC): 5.1 µM | MIC (Candida albicans; SC5314, […]10^3 cells/mL, 35°C, OD600 24 h, trial 1): 3.1 µg/mL | MIC (Candida albicans; SC5314, […]10^3 cells/mL, 35°C, OD600 24 h, trial 1, read-out: MIC): 3.4 µM | MIC (Candida albicans; SC5314, […]10^3 cells/mL, 35°C, OD600 24 h, trial 2): 6.3 µg/mL | MIC (Candida albicans; SC5314, […]10^3 cells/mL, 35°C, OD600 24 h, trial 2, read-out: MIC): 6.8 µM | MIC (Candida albicans; SC5314, […]10^5 cells/mL, 30°C, OD600 48 h, avg.): 0.8 µg/mL | MIC (Candida albicans; SC5314, […]10^5 cells/mL, 30°C, OD600 48 h, avg., read-out: MIC): 0.9 µM | MIC (Candida albicans; SC5314, […]10^5 cells/mL, 30°C, OD600 48 h, trial 1): 0.8 µg/mL | MIC (Candida albicans; SC5314, […]10^5 cells/mL, 30°C, OD600 48 h, trial 1, read-out: MIC): 0.9 µM | MIC (Candida albicans; SC5314, […]10^5 cells/mL, 30°C, OD600 48 h, trial 2): 0.8 µg/mL | MIC (Candida albicans; SC5314, […]10^5 cells/mL, 30°C, OD600 48 h, trial 2, read-out: MIC): 0.9 µM | MIC (Candida lusitaniae; C. Lusitania (CL3), Sensitive, RPMI 1640 (0.2% Glucose), […]10^5 cells/mL, 30° C.): 0.4 µg/mL | MIC (Candida lusitaniae; C. lusitaniae (CL3), […]10^3 cells/mL, 35°C, read-out: MIC): 0.4 µM | MIC (Candida lusitaniae; CL3, […]10^3 cells/mL, 35°C, OD600 24 h, avg.): <1.6 µg/mL | MIC (Candida lusitaniae; CL3, […]10^3 cells/mL, 35°C, OD600 24 h, avg., read-out: MIC): <1.7 µM | MIC (Candida lusitaniae; CL3, […]10^3 cells/mL, 35°C, OD600 24 h, trial 1): <1.6 µg/mL | MIC (Candida lusitaniae; CL3, […]10^3 cells/mL, 35°C, OD600 24 h, trial 1, read-out: MIC): <1.7 µM | MIC (Candida lusitaniae; CL3, […]10^3 cells/mL, 35°C, OD600 24 h, trial 2): <1.6 µg/mL | MIC (Candida lusitaniae; CL3, […]10^3 cells/mL, 35°C, OD600 24 h, trial 2, read-out: MIC): <1.7 µM | MIC (Candida lusitaniae; CL3, […]10^5 cells/mL, 30°C, OD600 48 h, avg.): 0.4 µg/mL
